Measurements from patent US20060293307A1, “Oxazolidinone derivatives as antimicrobials” (priority 2002, published 2006).
Converted amounts (≈) assume the structure as drawn. Like-named read-outs stand apart in the source and are kept apart here.

Assays:
Experiment in all cases: MIC, agar incorporation method
S. aureus ATCC 25923 = assay type: cell-based, Staphylococcus aureus
S. aureus ATCC29213 = assay type: cell-based, Staphylococcus aureus
S. aureus SG 511 = assay type: cell-based, Staphylococcus aureus
S. aureus (MRSA) 21299 = assay type: cell-based, Staphylococcus aureus
[1] = system: S. aureus (MRSA 33) Cipro R; assay type: cell-based, Staphylococcus aureus
(MRSA) 562 = assay type: cell-based, Staphylococcus aureus
S. aureus (Smith 49951) = assay type: cell-based, Staphylococcus aureus
[2] = system: S. epidermidis (MRSE)32965; assay type: cell-based, Staphylococcus epidermidis
S. haemo ATCC 29970 = assay type: cell-based
E. faecalis 29212 = assay type: cell-based
E. faecium 398(VRE) = assay type: cell-based, Enterococcus faecium
E. durans 581 = assay type: cell-based
E. coli 25922 = assay type: cell-based
P. aeruginosa ATCC 27853 = assay type: cell-based
[3] = system: Serratia marcescens 12999; assay type: cell-based
Acinetobacter 9956 = assay type: cell-based
S. pneumoniae AB4 = assay type: cell-based, Streptococcus pneumoniae
S. pneumoniae CS1221 = assay type: cell-based, Streptococcus pneumoniae
S. pneumoniae AB 10 = assay type: cell-based, Streptococcus pneumoniae
S. pneumoniae AB 31 = assay type: cell-based, Streptococcus pneumoniae
S. pneumoniae AB 14 = assay type: cell-based, Streptococcus pneumoniae
S. pneumoniae 217 = assay type: cell-based, Streptococcus pneumoniae
S. pneumoniae AB 16 = assay type: cell-based, Streptococcus pneumoniae
S. pneumoniae AB 17 = assay type: cell-based, Streptococcus pneumoniae
S. pneumoniae AB 21 = assay type: cell-based, Streptococcus pneumoniae
S. pneumoniae CS 1687 = assay type: cell-based, Streptococcus pneumoniae
S. pneumoniae AB 25 = assay type: cell-based, Streptococcus pneumoniae
S. pneumoniae AB 29 = assay type: cell-based, Streptococcus pneumoniae
S. pneumoniae AB 34 = assay type: cell-based, Streptococcus pneumoniae
S. pneumoniae ATCC 6303 = assay type: cell-based, Streptococcus pneumoniae
S. pyogenes 19615 = assay type: cell-based, Streptococcus pyogenes
S. pyogenes 20361 = assay type: cell-based, Streptococcus pyogenes
S pneumoniae 1294. = assay type: cell-based, Streptococcus pneumoniae
S. pneumoniae 1275 = assay type: cell-based, Streptococcus pneumoniae
Moraxella M1 = assay type: cell-based
Moraxella cata. M2 = assay type: cell-based

SMILES: C[C@H](Cl)C(=O)NCC1CN(c2ccc(N3CCN(c4ccc([N+](=O)[O-])s4)CC3)c(F)c2)C(=O)O1 (stereo partly drawn) [Compound No. 7, (S)—N-[[3-[3-Fluoro-4-[N-1-{4-(5-nitro-2-thienyl)piperazinyl}]-phenyl]-2-oxo-5-oxazolidinyl]-methyl]-2-chloro-propionamide]
- MIC (S. aureus ATCC 25923; S. No. 1, organism cell empty): >8 µg/mL
- MIC (S. aureus ATCC29213; S. No. 2, S. aureus ATCC29213): >8 µg/mL
- MIC (S. aureus SG 511; S. No. 3, S. aureus SG 511): >8 µg/mL
- MIC (S. aureus (MRSA) 21299; S. No. 5, S. aureus (MRSA) 21299): >8 µg/mL
- MIC ([1]; S. No. 7, S. aureus (MRSA 33) Cipro R): >8 µg/mL
- MIC ((MRSA) 562; S. No. 8, (MRSA) 562): >8 µg/mL
- MIC (S. aureus (Smith 49951); S. No. 9, S. aureus (Smith 49951)): >8 µg/mL
- MIC ([2]; S. No. 13, S. epidermidis (MRSE)32965): 2 µg/mL (≈ 3.91 µM)
- MIC (S. haemo ATCC 29970; S. No. 15, S. haemo ATCC 29970): 2 µg/mL (≈ 3.91 µM)
- MIC (E. faecalis 29212; S. No. 17, E. faecalis 29212): >8 µg/mL
- MIC (E. faecium 398(VRE); S. No. 22, E. faecium 398(VRE)): 8 µg/mL (≈ 15.6 µM)
- MIC (E. durans 581; S. No. 24, E. durans 581): 8 µg/mL (≈ 15.6 µM)
- MIC (E. coli 25922; S. No. 25, E. coli 25922): >8 µg/mL
- MIC (P. aeruginosa ATCC 27853; S. No. 28, P. aeruginosa ATCC 27853): >8 µg/mL
- MIC ([3]; S. No. 29, Serratia marcescens 12999): >8 µg/mL
- MIC (Acinetobacter 9956; S. No. 30, Acinetobacter 9956): >8 µg/mL
- MIC (S. pneumoniae AB4; S. No. 33, S. pneumoniae AB4): 0.5 µg/mL (≈ 0.977 µM)
- MIC (S. pneumoniae CS1221; S. No. 34, S. pneumoniae CS1221): 0.5 µg/mL (≈ 0.977 µM)
- MIC (S. pneumoniae AB 10; S. No. 35, S. pneumoniae AB 10): 0.5 µg/mL (≈ 0.977 µM)
- MIC (S. pneumoniae AB 31; S. No. 36, S. pneumoniae AB 31): 1 µg/mL (≈ 1.95 µM)
- MIC (S. pneumoniae AB 14; S. No. 37, S. pneumoniae AB 14): 1 µg/mL (≈ 1.95 µM)
- MIC (S. pneumoniae 217; S. No. 38, S. pneumoniae 217): 1 µg/mL (≈ 1.95 µM)
- MIC (S. pneumoniae AB 16; S. No. 39, S. pneumoniae AB 16): 1 µg/mL (≈ 1.95 µM)
- MIC (S. pneumoniae AB 17; S. No. 40, S. pneumoniae AB 17): 1 µg/mL (≈ 1.95 µM)
- MIC (S. pneumoniae AB 21; S. No. 41, S. pneumoniae AB 21): 1 µg/mL (≈ 1.95 µM)
- MIC (S. pneumoniae CS 1687; S. No. 44, S. pneumoniae CS 1687): 2 µg/mL (≈ 3.91 µM)
- MIC (S. pneumoniae AB 25; S. No. 45, S. pneumoniae AB 25): 0.5 µg/mL (≈ 0.977 µM)
- MIC (S. pneumoniae AB 29; S. No. 46, S. pneumoniae AB 29): 0.5 µg/mL (≈ 0.977 µM)
- MIC (S. pneumoniae AB 34; S. No. 49, S. pneumoniae AB 34): 4 µg/mL (≈ 7.81 µM)
- MIC (S. pneumoniae ATCC 6303; S. No. 50, S. pneumoniae ATCC 6303): 0.5 µg/mL (≈ 0.977 µM)
- MIC (S. pyogenes 19615; S. No. 51, S. pyogenes 19615): 2 µg/mL (≈ 3.91 µM)
- MIC (S. pyogenes 20361; S. No. 53, S. pyogenes 20361): 2 µg/mL (≈ 3.91 µM)
- MIC (S pneumoniae 1294.; S. No. 55, S pneumoniae 1294.): 2 µg/mL (≈ 3.91 µM)
- MIC (S. pneumoniae 1275; S. No. 57, S. pneumoniae 1275): 0.25 µg/mL (≈ 0.488 µM)
- MIC (Moraxella M1; S. No. 58, Moraxella M1): >8 µg/mL
- MIC (Moraxella cata. M2; S. No. 59, Moraxella cata. M2): >8 µg/mL

SMILES: O=C(NC[C@H]1CN(c2ccc(N3CCN(c4ccc([N+](=O)[O-])s4)CC3)c(F)c2)C(=O)O1)C(F)F [Compound No. 8, (S)—N-[[3-[3-Fluoro-4-[4-(5-nitro-2-thienyl)-1-piperazinyl]phenyl]-2-oxo-5-oxazolidinyl]methyl]difluoroacetamide]
- MIC (S. aureus ATCC 25923; Staphylococcus aureus, ATCC25923): 2 µg/mL (≈ 4 µM)
- MIC (S. aureus ATCC29213; Staphylococcus aureus, ATCC29213): 2 µg/mL (≈ 4 µM)
- MIC (S. aureus SG 511; Staphylococcus aureus, SG511): 0.25 µg/mL (≈ 0.501 µM)
- MIC (S. aureus (MRSA) 21299; Staphylococcus aureus, MRSA): 2 µg/mL (≈ 4 µM)
- MIC ([1]; Staphylococcus aureus, MRSA): 2 µg/mL (≈ 4 µM)
- MIC ((MRSA) 562; Staphylococcus aureus, MRSA): 2 µg/mL (≈ 4 µM)
- MIC (S. aureus (Smith 49951); Staphylococcus aureus): 1 µg/mL (≈ 2 µM)
- MIC ([2]; Staphylococcus epidermidis, MRSE): 0.25 µg/mL (≈ 0.501 µM)
- MIC (S. haemo ATCC 29970): 0.25 µg/mL (≈ 0.501 µM)
- MIC (E. faecalis 29212; Enterococcus faecalis, 29212): 0.25 µg/mL (≈ 0.501 µM)
- MIC (E. faecium 398(VRE); Enterococcus faecium, VRE): 0.25 µg/mL (≈ 0.501 µM)
- MIC (E. durans 581; Enterococcus durans, 581): 0.25 µg/mL (≈ 0.501 µM)
- MIC (E. coli 25922; Escherichia coli, 25922): > 8 µg/mL
- MIC (P. aeruginosa ATCC 27853; Pseudomonas aeruginosa, ATCC27853): > 8 µg/mL
- MIC ([3]; Serratia marcescens, 12999): > 8 µg/mL
- MIC (Acinetobacter 9956; Acinetobacter, 9956): 8 µg/mL (≈ 16 µM)
- MIC (S. pneumoniae AB4; Streptococcus pneumoniae, AB4): 0.125 µg/mL (≈ 0.25 µM)
- MIC (S. pneumoniae CS1221; Streptococcus pneumoniae, CS1221): 0.125 µg/mL (≈ 0.25 µM)
- MIC (S. pneumoniae AB 10; Streptococcus pneumoniae, AB10): 0.125 µg/mL (≈ 0.25 µM)
- MIC (S. pneumoniae AB 31; Streptococcus pneumoniae, AB31): 0.25 µg/mL (≈ 0.501 µM)
- MIC (S. pneumoniae AB 14; Streptococcus pneumoniae, AB14): 0.25 µg/mL (≈ 0.501 µM)
- MIC (S. pneumoniae 217; Streptococcus pneumoniae, 217): 0.25 µg/mL (≈ 0.501 µM)
- MIC (S. pneumoniae AB 16; Streptococcus pneumoniae, AB16): 0.25 µg/mL (≈ 0.501 µM)
- MIC (S. pneumoniae AB 17; Streptococcus pneumoniae, AB17): 0.25 µg/mL (≈ 0.501 µM)
- MIC (S. pneumoniae AB 21; Streptococcus pneumoniae, AB21): 0.25 µg/mL (≈ 0.501 µM)
- MIC (S. pneumoniae CS 1687; Streptococcus pneumoniae, CS1687): 0.25 µg/mL (≈ 0.501 µM)
- MIC (S. pneumoniae AB 25; Streptococcus pneumoniae, AB25): 0.25 µg/mL (≈ 0.501 µM)
- MIC (S. pneumoniae AB 29; Streptococcus pneumoniae, AB29): 0.25 µg/mL (≈ 0.501 µM)
- MIC (S. pneumoniae AB 34; Streptococcus pneumoniae, AB34): 0.5 µg/mL (≈ 1 µM)
- MIC (S. pneumoniae ATCC 6303; Streptococcus pneumoniae, ATCC6303): 0.25 µg/mL (≈ 0.501 µM)
- MIC (S. pyogenes 19615; Streptococcus pyogenes, 19615): 0.25 µg/mL (≈ 0.501 µM)
- MIC (S. pyogenes 20361; Streptococcus pyogenes, 20361): 0.25 µg/mL (≈ 0.501 µM)
- MIC (S pneumoniae 1294.; Streptococcus pneumoniae, 1294.): 0.25 µg/mL (≈ 0.501 µM)
- MIC (S. pneumoniae 1275; Streptococcus pneumoniae, 1275): 0.06 µg/mL (≈ 0.12 µM)
- MIC (Moraxella M1; Moraxella, M1): 1 µg/mL (≈ 2 µM)
- MIC (Moraxella cata. M2; Moraxella, CATA.M2): 1 µg/mL (≈ 2 µM)
